Laboratory results: ChEMBL document CHEMBL3046431, “Novel 4H-1,2,4-triazol-3-yl cycloalkanols as potent antitubercular agents” (Med Chem Res, 2013)
In brackets after ≈: the same amount, converted by molar mass.

Experiments:
[1] = Cytotoxicity against Chlorocebus aethiops (African green monkey) Vero C1008 cells assessed as cell viability after 72 hr by MTT assay; type: cell-based; conditions: chlorocebus sabaeus
[2] = Selectivity index, ratio of CC50 for african green monkey Vero C1008 cells to MIC for Mycobacterium tuberculosis H37Rv; type: toxicity, cell-based; conditions: read-out: Selectivity Index
[3] = test system: Mycobacterium tuberculosis; test: Antitubercular activity against Mycobacterium tuberculosis H37Rv assessed as growth inhibition after 7 days by resazurin microplate assay; type: functional; conditions: 168 h

SMILES	CC50 at 72 h [1] [µg/mL]	selectivity ratio [2]	MIC [3] [µg/mL]
Cc1csc(-c2nnc(C3(O)C4CC5CC(C4)CC3C5)[nH]2)c1 (stereo unspecified)	356 (≈ 1130 µM)	84	4.25 (≈ 13.5 µM)
CC1CCC(O)(c2nnc(-c3ccncc3)[nH]2)CC1 (stereo unspecified)	403 (≈ 1560 µM)	424	0.95 (≈ 3.68 µM)
CC1CCC(O)(c2nnc(-c3ccccc3)[nH]2)CC1 (stereo unspecified)	437 (≈ 1700 µM)	28	15.5 (≈ 60.2 µM)
Cc1nnc(C2(O)CCCCC2)[nH]1	392 (≈ 2160 µM)	63	6.25 (≈ 34.5 µM)
Cc1nnc(C2(O)CC(C)CC(C)(C)C2)[nH]1 (stereo unspecified)	380 (≈ 1700 µM)	84	4.5 (≈ 20.2 µM)
Cc1nnc(C(O)C2CC=CCC2)[nH]1 (stereo unspecified)	318 (≈ 1650 µM)	62	5.15 (≈ 26.6 µM)
Cc1nnc(C(O)C2CCC(O)C(O)C2)[nH]1 (stereo unspecified)	378 (≈ 1660 µM)	116	3.25 (≈ 14.3 µM)
Oc1ccc(-c2nnc(C3(O)CCCC3)[nH]2)cc1	347 (≈ 1410 µM)	108	3.2 (≈ 13 µM)
OC1(c2nnc(-c3ccncc3)[nH]2)CCCC1	382 (≈ 1660 µM)	490	0.78 (≈ 3.39 µM)
OC1(c2nnc(-c3ccccc3)[nH]2)CCCCC1	422 (≈ 1730 µM)	34	12.4 (≈ 50.8 µM)
Oc1ccc(-c2nnc(C3(O)CCCCC3)[nH]2)cc1	340 (≈ 1310 µM)	45	7.5 (≈ 28.9 µM)
OC1(c2nnc(-c3ccncc3)[nH]2)CCCCC1	412 (≈ 1690 µM)	698	0.59 (≈ 2.42 µM)
OC1(c2nnc(-c3cccnc3)[nH]2)CCCCC1	397 (≈ 1630 µM)	88	4.5 (≈ 18.4 µM)
Cc1csc(-c2nnc(C3(O)CCCCC3)[nH]2)c1	373 (≈ 1420 µM)	226	1.65 (≈ 6.27 µM)
CC1CC(C)(C)CC(O)(c2nnc(-c3ccccc3)[nH]2)C1 (stereo unspecified)	383 (≈ 1340 µM)	25	15.4 (≈ 53.8 µM)
CC1CC(C)(C)CC(O)(c2nnc(-c3ccc(O)cc3)[nH]2)C1 (stereo unspecified)	352 (≈ 1170 µM)	33	10.5 (≈ 34.8 µM)
CC1CC(C)(C)CC(O)(c2nnc(-c3ccncc3)[nH]2)C1 (stereo unspecified)	414 (≈ 1450 µM)	637	0.65 (≈ 2.27 µM)
CC1CC(C)(C)CC(O)(c2nnc(-c3cccnc3)[nH]2)C1 (stereo unspecified)	368 (≈ 1290 µM)	29	12.5 (≈ 43.6 µM)
OC(c1nnc(-c2ccccc2)[nH]1)C1CC=CCC1 (stereo unspecified)	358 (≈ 1400 µM)	29	12.5 (≈ 49 µM)
OC(c1nnc(-c2ccncc2)[nH]1)C1CC=CCC1 (stereo unspecified)	388 (≈ 1510 µM)	310	1.25 (≈ 4.88 µM)
OC(c1nnc(-c2cccnc2)[nH]1)C1CC=CCC1 (stereo unspecified)	371 (≈ 1450 µM)	44	8.5 (≈ 33.2 µM)
OC1CCC(C(O)c2nnc(-c3ccccc3)[nH]2)CC1O (stereo unspecified)	429 (≈ 1480 µM)	55	7.75 (≈ 26.8 µM)
OC1CCC(C(O)c2nnc(-c3ccncc3)[nH]2)CC1O (stereo unspecified)	429 (≈ 1480 µM)	477	0.9 (≈ 3.1 µM)
NNC(=O)c1ccncc1 [ISONIAZID]		499	0.4 (≈ 2.92 µM)
